Measured values published in PMC3246456, “An Immunoassay for Dibutyl Phthalate Based on Direct Hapten Linkage to the Polystyrene Surface of Microtiter Plates” (PLoS ONE, 2011).

Experiments:
[1] = test system: anti-DBP MAb; assay: Hapten coated icELISA (DBAP directly linked to polystyrene); assay type: binding, mouse; details: for CR (cross-reactivity): CR (%) = IC50 DBP/IC50 analogue×100; for inhibition: at 10 mg/mL; for antibody recognition: specificity of MAb
Procedure: (§1) An icELISA was used to assess the sensitivity of the MAb to free DBP and the cross-reactivities of structurally related compounds to the antibody. For competition, 50 µL of standards or diluted samples in assay buffer were placed in the wells, and 50 µL of the anti-DBP MAb diluted with assay buffer was added. After incubated for 1.5 h at 25°C, the plate was washed. The following procedure was followed as described for the inELISA. […] Standards and samples were run in triplicate wells, and the mean absorbance values were processed. Standard curves were obtained by plotting absorbance against the logarithm of analyte concentration and fitted with a logistic four-parameter equation y = (A−D)/[1+(x/C)^B]+D, where A is the absorbance value with no analyte present, B is the slope near the midpoint inhibition concentration, C is the concentration of analyte giving 50% inhibition (IC50), and D is the minimum absorbance value at infinite concentration of the analyte, [21]. Dynamic range was established between the concentrations producing 20% and 80% inhibition (IC20–IC80 or 80%–20% of the maximum response). Limit of detection (LOD) was determined as the concentration corresponding to 10% inhibitory concentration (IC10 or 90% of the maximum response) [22]–[24].
Polystyrene surface was first carboxylated by permanganate oxidation. Microwells were filled with a solution of 5% KMnO4 in 0.6 mol/L H2SO4 (150 µL/well) for 60 min at 60°C. The plates were washed with 6 mol/L HCl (3×5 min, 200 µL/well) to remove the brown manganese oxide and rinsed three times with distilled water giving polystyrene-COOH microwells [25]. Then 150 µL of EDC and hapten DBAP in 0.1 mol/L MES buffer (pH 5.0) were placed in the wells and incubated overnight under shaking (Fig. 2). The subsequent procedures were the same as conjugate coated inELISA or icELISA under optimal condition. The essential steps in direct attachment of hapten DBAP to polystyrene surface such as concentrations of EDC and conjugation temperatures were determined by the amount of antibody on the modified polystyrene surface measured by inELISA with coating concentration of 2 µg/mL DBAP and MAb dilution of 1∶2000. The optimal coating concentration of DBAP and dilution of MAb were determined by checkerboard titration.
To determine the specificity of MAb produced, the ability of the MAb to recognize several structurally related compounds (analogues) was tested by performing hapten coated icELISA and determining their respective IC50 values. The cross-reactivity (CR) values were calculated according to the following equation CR (%) = IC50 DBP/IC50 analogue×100 [23], [26].

[2] = test system: MAb; assay: Binding of MAb to hapten linked on polystyrene surface; set-up: species or system mouse; details: carboxylated hapten linked to polystyrene surface; absorbance at 492 nm too low
Text: Although methods had already been reported for linking hapten to polystyrene surface, [11], it was not applicable to the hapten coated ELISA for DBP because the MAb produced hardly bound to the carboxylated hapten DBCP on polystyrene (The absorbance value at 492 nm was too low.). Thus it was needed to immobilize the aminated hapten DBAP to the surface of polystyrene. Holthues et al had linked an aminated hapten ABA–atrazine to a glutaraldehyde polymer network directly bound to polystyrene surface and developed very sensitive ELISA to detect terbutryn. However, it was a failure to establish hapten coated ELISA for DBP based on covalently linking DBAP to a glutaraldehyde polymer network on polystyrene surface. […] The hapten coated format presented is proposed as generally applicable, because the carboxyl on modified microtiter plate surface enables stable immobilization of aminated or hydroxylated hapten through EDC.

[3] = test system: polyclonal antibody; set-up: method as in PMID 16947007; details: cited from earlier work
[4] = test system: antibodies in hybridoma culture supernatants; assay: Hybridoma screening by icELISA with 1 µg/mL DBAP-BSA; assay type: binding, mouse; details: three competitive clones of 352 wells; coated antigen 1 µg/mL DBAP-BSA
Procedure: SP 2/0 murine myeloma cells were cultured in DMEM supplemented with 15% fetal bovine serum and 1% penicillin–streptomycin. Cell fusion and hybridoma culture procedures were carried out essentially as described by James. Mice splenocytes were mixed with SP 2/0 cells at the ratio of 5∶1 and centrifuged at 450 g for 5 min. One milliliters of polyethylene glycol solution at 37°C was dropped to the cell pellet over 1 min. The cell pellet was rotated for further 1 min, then 1 mL of DMEM added over 1 min, 2 mL of DMEM over 2 min. Finally, 12 mL was added over 2 min. After centrifugation at 450 g for 5 min, the cells were pelleted again, resuspended in HAT medium (DMEM containing 15% fetal bovine serum, 1% penicillin–streptomycin and 2% HAT media supplement) and plated into 96-well plates in which normal mouse peritoneal exudate cells (as feeder cells) had already been cultured 1 day before fusion. The colonies were fed every fifth day with freshly prepared HAT medium. […] The ratio of both absorbances was used as the criterion for selecting the best antibody-secreting clones. […]
An icELISA was used to assess the sensitivity of the MAb to free DBP and the cross-reactivities of structurally related compounds to the antibody. […] Standards and samples were run in triplicate wells, and the mean absorbance values were processed. […]

[5] = test system: anti-DBP MAb; assay: Conjugate coated indirect competitive ELISA (icELISA), DBAP-BSA coated; assay type: binding, mouse
Procedure: Checkerboard titration, in which purified MAb was titrated against varying amounts of the coating hapten-conjugate was used to measure the reactivity of antibodies and to select an appropriate coating concentrations and antibody dilutions for icELISA [19]. The checkerboard assays were performed with inELISA. Microtiter plates were coated with 100 µL/well of hapten-protein conjugates (0, 0.125, 0.25, 0.5, and 1 µg/mL) in 0.05 mol/L carbonate buffer (pH 9.6) and incubated overnight at 4°C. The plates were washed three times with PBST (0.01 mol/L PBS containing 0.05% Tween-20, pH 7.4, 200 µL/well) and were blocked with 3% (w/v) skim milk powder (SMP) in PBS (250 µL/well) for 1 h at 37°C. After another washing step, 100 µL/well of purified anti-DBP MAb (1∶1000, 1∶2000, 1∶4000, 1∶8000, 1∶16000, and 1∶32000) diluted in PBS containing 0.1% BSA was added. After incubation for 1.5 h at 25°C, the plates were washed. Subsequently, the plates were incubated for 1 h at 37°C with 10000-fold diluted HRP-anti-mIgG in PBS containing 0.1% BSA (100 µL/well). After another washing step, 100 µL/well of freshly prepared O-phenylenediamine (OPD) solution (0.4 mg/mL OPD and 0.012% H2O2 in 0.05 mol/L citrate-phosphate, pH 5.0) was added. The reaction was stopped with 2 mol/L sulfuric acid (50 µL/well) after an incubation of 15 min at room temperature keeping away from light. The absorbance was recorded at a primary wavelength of 492 nm with a reference wavelength of 630 nm.
as §1
The influence of several experimental parameters on assay characteristics was examined in order to improve the sensitivity of the immunoassay. Concentrations of coating antigen and dilutions of MAb were determined by checkerboard titration. Other different experimental parameters such as organic solvents, pH, ionic strength, and detergent in assay buffer, and blocking agents were studied sequentially in this order using the above described icELISA protocol. Each time an evaluated parameter was changed, the new value was used for the evaluation of the next condition. Criteria used to evaluate the assay performances were the absorbance of zero concentration of DBP (Amax) and IC50.

[6] = cross-reactivity study, hapten coated icELISA, mean ±SD of three replicates
[7] = hapten coated icELISA, optimized conditions
[8] = conjugate coated icELISA, optimized conditions

Q: With `CCCCOC(=O)c1ccccc1C(=O)OCc1ccccc1` [BBP, Butyl benzyl phthalate] as the compound, how does the IC50 [1, 6] read?
A: Its IC50 is 0.0721 ± 0.0142 µg/mL.

Q: Which “CR (cross-reactivity)” value ([1]; hapten coated icELISA) does the source give for `CCCCOC(=O)c1ccc(N)cc1C(=O)OCCCC` [DBAP, dibutyl 4-aminophthalate] here?
A: Its value is 27.8%.

Q: What about the IC50 [1, 6] of the same compound?
A: The IC50 was 0.0529 ± 0.0124 µg/mL.

Q: With `CCCCOC(=O)c1ccc(NC(=O)CCC(=O)O)cc1C(=O)OCCCC` [DBCP] as the compound, how does the “binding of MAb to hapten on polystyrene” value [2] read?
A: The value was “hardly bound”.

Q: What does the source list for `CCCCOC(=O)c1ccccc1C(=O)OCCCC` [DBP, Dibutyl phthalate]?
A: limit of detection (LOD) ([3]; as stated by Zhang et al): 0.02 µg/L; concentration causing 50% of the maximal fluorescence quenching ([3]; maximum concentration used did not cause 50% quenching): > 1000 µg/L; IC50 [4]: < 5 µg/mL; CR (cross-reactivity) ([1]; hapten coated icELISA): 100%; IC50 [1, 6]: 0.0147 ± 0.0028 µg/mL; IC50 ([1]; hapten coated icELISA standard curve, optimized conditions (DBAP 1 µg/mL, MAb 1:1000)): 0.0146 µg/mL; LOD (IC10) [1, 7]: 0.000426 µg/mL; dynamic range (IC20–IC80) [1, 7]: 0.00174 to 0.123 µg/mL; IC50 (blocking agent optimization) ([5]; OVA as a blocking reagent (Fig. 4D)): 0.10813 ± 0.01952 µg/mL; IC50 (lowest, pH optimization) ([5]; assay buffer pH 6.8 (Fig. 4A)): 177.04±15.37 ng/mL; IC50 ([5]; assay buffer with 0% DMF (DMF series) in PBS containing 0.1% BSA, mean ±SD, three replicates): 0.369 ± 0.0274 µg/mL; IC50 ([5]; assay buffer with 0% DMSO (DMSO series) in PBS containing 0.1% BSA, mean ±SD, three replicates): 0.392 ± 0.0702 µg/mL; IC50 ([5]; assay buffer with 0% acetonitrile (acetonitrile series) in PBS containing 0.1% BSA, mean ±SD, three replicates): 0.471 ± 0.0306 µg/mL; IC50 ([5]; assay buffer with 0% dioxane (dioxane series) in PBS containing 0.1% BSA, mean ±SD, three replicates): 0.797 ± 0.0198 µg/mL; IC50 ([5]; assay buffer with 0% methanol (methanol series) in PBS containing 0.1% BSA, mean ±SD, three replicates): 1.4 ± 0.0643 µg/mL; IC50 ([5]; assay buffer with 5% DMF in PBS containing 0.1% BSA, mean ±SD, three replicates): 0.303 ± 0.0302 µg/mL; IC50 ([5]; assay buffer with 5% DMSO in PBS containing 0.1% BSA, mean ±SD, three replicates): 0.373 ± 0.0318 µg/mL; IC50 ([5]; assay buffer with 5% acetonitrile in PBS containing 0.1% BSA, mean ±SD, three replicates): 0.444 ± 0.0118 µg/mL; IC50 ([5]; assay buffer with 5% dioxane in PBS containing 0.1% BSA, mean ±SD, three replicates): 1.679 ± 0.271 µg/mL; IC50 ([5]; assay buffer with 5% methanol in PBS containing 0.1% BSA, mean ±SD, three replicates): 0.637 ± 0.0671 µg/mL; IC50 ([5]; assay buffer with 10% DMF in PBS containing 0.1% BSA, mean ±SD, three replicates): 0.223 ± 0.0118 µg/mL; IC50 ([5]; assay buffer with 10% DMSO in PBS containing 0.1% BSA, mean ±SD, three replicates): 0.52 ± 0.0661 µg/mL; IC50 ([5]; assay buffer with 10% acetonitrile in PBS containing 0.1% BSA, mean ±SD, three replicates): 0.325 ± 0.0088 µg/mL; IC50 ([5]; assay buffer with 10% dioxane in PBS containing 0.1% BSA, mean ±SD, three replicates): 2.509 ± 0.504 µg/mL; IC50 ([5]; assay buffer with 10% methanol in PBS containing 0.1% BSA, mean ±SD, three replicates): 0.624 ± 0.0145 µg/mL; IC50 ([5]; assay buffer with 20% DMF in PBS containing 0.1% BSA, mean ±SD, three replicates): 0.345 ± 0.0175 µg/mL; IC50 ([5]; assay buffer with 20% DMSO in PBS containing 0.1% BSA, mean ±SD, three replicates): 0.423 ± 0.053 µg/mL; IC50 ([5]; assay buffer with 20% acetonitrile in PBS containing 0.1% BSA, mean ±SD, three replicates): 0.428 ± 0.0112 µg/mL; IC50 ([5]; assay buffer with 20% dioxane in PBS containing 0.1% BSA, mean ±SD, three replicates): 2.191 ± 0.224 µg/mL; IC50 ([5]; assay buffer with 20% methanol in PBS containing 0.1% BSA, mean ±SD, three replicates): 0.889 ± 0.0186 µg/mL; IC50 ([5]; conjugate coated icELISA standard curve, optimized conditions (DBAP-BSA 0.25 µg/mL, MAb 1:8000)): 0.106 µg/mL; LOD (IC10) [5, 8]: 0.0105 µg/mL; dynamic range (IC20–IC80) [5, 8]: 0.0252 to 0.445 µg/mL

Q: With `CCCCC(CC)COC(=O)c1ccccc1C(=O)OCC(CC)CCCC` (stereo not drawn) [DEHP, di(2-ethylhexyl) phthalate] as the compound, how does the inhibition ([1]; hapten coated icELISA) read?
A: The inhibition was 1.12% inhibition at 10 mg/mL.

Q: What about the antibody recognition ([1]; hapten coated icELISA) of the same compound?
A: The antibody recognition was “absence of recognition”.

Q: Which inhibition ([1]; hapten coated icELISA) does the source give for `CCOC(=O)c1ccccc1C(=O)OCC` [DEP, diethyl phthalate] here?
A: The inhibition was 5.08% inhibition at 10 mg/mL.

Q: What about the antibody recognition ([1]; hapten coated icELISA) of the same compound?
A: The antibody recognition was “absence of recognition”.

Q: Which inhibition ([1]; hapten coated icELISA) does the source give for `COC(=O)c1ccccc1C(=O)OC` [DMP, dimethyl phthalate] here?
A: Its inhibition is 7.98% inhibition at 10 mg/mL.

Q: And the antibody recognition ([1]; hapten coated icELISA)?
A: The antibody recognition was “absence of recognition”.

Q: With `CCCCCCCCOC(=O)c1ccccc1C(=O)OCCCCCCCC` [DOP, di(n-octyl) phthalate] as the compound, how does the inhibition ([1]; hapten coated icELISA) read?
A: The inhibition was 1.15% inhibition at 10 mg/mL.

Q: What about the antibody recognition ([1]; hapten coated icELISA) of the same compound?
A: Its antibody recognition is “absence of recognition”.
